Measurements from US20070197593A1, “HYDROXYLAMINES AND DERIVATIVES FOR TREATMENT OF INFLAMMATORY CONDITIONS OF THE LIVER” (priority 2006, published 2007).

Legend:
Sprague Dawley rats = assay: 28-day intravenous toxicity study in rats, liver histopathology (subacute hepatitis); assay type: in vivo
Method: Potential toxicity of Compound 1-HCl was evaluated by intravenous administration to Sprague Dawley rats for 28 days. This study was conducted in compliance with FDA Good Laboratory Practice Standards, 21 CFR 58 and in accordance with OECD Principles of Good Laboratory Practice.
One hundred twelve Sprague Dawley—HsD: SD rats were randomly divided into eight groups and treated with Compound 1 (“test article”) or vehicle, by intravenous administration via the lateral tail vein (slow bolus) (Table 1).
Animals in Groups 1-4 were subjected to a complete necropsy examination. Protocol-specified necropsy procedures included the recording of organ weights (adrenals, brain, hearts, kidneys, liver, testes, ovaries, spleen, thyroids, parathyroids), examination of the external body surface, examination of all orifices, and examination of the cranial, thoracic, and abdominal cavities and their contents. Post-fixation weights for the thyroids/parathyroids were recorded. The following protocol-specified tissues were collected at necropsy: animal identification (not evaluated), abnormalities (gross findings), adrenals, aorta, brain, cecum, cervix, colon, duodenum, epidiymides, esophagus, eye with optic nerve, femur with articular surface, heart, ileum, injection site, jejunum, kidneys, lacrimal glands (exorbital), larynx, liver, lung with mainstem bronchus, mammary gland, mandibular lymph nodes, mesenteric lymph nodes, ovaries, pancreas, pituitary, prostate, rectum, salivary glands, sciatic nerve, seminal vesicles, skeletal muscle (thigh), skin, spinal cord (cervical, midthoracis, lumbar), spleen, sternum with bone marrow, stomach, testes, thymus, thyroid/parathyroid, tongue, trachea, urinary bladder, uterus, and vagina.
On day 29, animals were weighed and sacrificed by CO2 inhalation. Protocol-specific tissues were preserved in 10% neutral buffered formalin (NBF). Protocol-requires tissues were embedded in paraffin, sectioned at approximately 5 microns, and processed to slides stained with hematoxylin and eosin (H&E). Histopathological evaluation was performed by a veterinary pathologist on all rats in Group 1 and Group 4 sacrificed on day 29, as well as for all early deaths. Livers for animals in Groups 2 and 3 were evaluated microscopically.

[1] = tested on: LPS induced TNF-alpha in monocytes; assay: LPS induced TNF-alpha in monocytes (TNF alpha assay); assay type: cell-based; conditions: Monocyte; compound 10 uM; 5 ng/mL LPS; read-out: Mean Percent Inhibition of TNF-alpha using 5 ng/mL LPS
Method: This test is a standard methodology for assessing the anti-inflammatory activity of compounds. Table 1 provides Percent Inhibition of LPS induced TNF-alpha in monocytes data for 18 hydroxylamine compounds of the invention. Compounds at different concentrations (0, 1, 2.5 and 10 uM) were incubated with 100 ul freshly collected heparinized blood for 10 minutes. […] Following incubation with LPS, PBS was added (800 uL) and samples were spun for 10 minutes at 1500 g. TNFα protein concentrations were measured using R&D Systems high sensitivity ELISA kit. THP-1 cells (0.5×10^6 cells/mL) were incubated with the compounds (0, 1, 2.5 and 10 uM) for 3 hrs in humidified chamber, 37° C., 5% CO2, 2% FBS in RPMI medium. Cells were induced with 25 ng/mL LPS for another 3 hrs. Cells were collected and spun at 1500 g for 10 minutes. Supernatant was collected and analyzed for TNFα.

## CC1(C)CC(OC(=O)C2CC2)CC(C)(C)N1O.Cl [Compound 1, 1-Hydroxy-4-cyclopropanecarbonyloxy-2,2,6,6-tetramethylpiperidine hydrochloride]
Sprague Dawley rats; Group 2, 1.0 mg/kg/day i.v. 28 days, female rats (8 per group), vehicle Group 1 females 6/8
  Subacute hepatic inflammation (hepatitis) incidence, number of rats with minimal subacute hepatitis: one
Sprague Dawley rats; Group 2, 1.0 mg/kg/day i.v. 28 days, male rats (8 per group), vehicle Group 1 males 8/8
  Subacute hepatic inflammation (hepatitis) incidence: not present in any
Sprague Dawley rats; Group 3, 2.5 mg/kg/day i.v. 28 days, female rats (8 per group), vehicle Group 1 females 6/8
  Subacute hepatic inflammation (hepatitis) incidence: not present in any
Sprague Dawley rats; Group 3, 2.5 mg/kg/day i.v. 28 days, male rats (8 per group), vehicle Group 1 males 8/8
  Subacute hepatic inflammation (hepatitis) incidence, number of rats with minimal subacute hepatitis: one
Sprague Dawley rats; Group 4, 7.5 mg/kg/day i.v. 28 days, female rats (8 per group), vehicle Group 1 females 6/8
  Subacute hepatic inflammation (hepatitis) incidence: not present in any
Sprague Dawley rats; Group 4, 7.5 mg/kg/day i.v. 28 days, male rats (8 per group), vehicle Group 1 males 8/8
  Subacute hepatic inflammation (hepatitis) incidence: not present in any
Sprague Dawley rats; Groups 2-4 (1.0-7.5 mg/kg/day i.v. 28 days), male and female rats
  Effect on background liver inflammation (idiopathic lesion) in treated rats: reduction in the incidence of this idiopathic lesion
[1]
  inhibition at 10 µM: 68 ± 6%
